Source: patent US5693650A, “4-(Quinolin-2-yl-methoxy)-phenyl-acetic acid derivatives” (Bayer Aktiengesellschaft, priority 1994, dated 1997)

System: ApoB-100-associated lipoproteins
Assay: Inhibition of the release of ApoB-100-associated lipoproteins from liver cells (HepG2), immunoassay for human LDL
Assay type: cell-based
Conditions: release of ApoB-100-associated particles into HepG2 culture supernatant, 50% inhibition of light adsorption at 450 nm vs solvent control
Protocol: The test for detection of the inhibition of the release of ApoB-100-associated lipoproteins from liver cells was carried out in vitro with cultured liver cells, preferably with cells of the human line HepG2. These cells are grown under standard conditions in a medium for culture of eukaryotic cells, preferably in RPMI 1640, with 10% of foetal calf serum. HepG2 cells synthesize and secrete into the culture supernatant ApoB-100-associated lipoprotein particles, which in principle are built up in a similar manner to the VLDL and LDL particles which are to be found in the plasma.
These particles can be detected with an immunoassay for human LDL. This immunoassay is carried out with antibodies which have been induced against human LDL in the rabbit under standard conditions. The anti-LDL antibodies (rab-anti-LDL-ab) were purified by affinity chromatography on an immunosorbent with human LDL. These purified rab-anti-LDL-ab are adsorbed onto the surface of plastic. This adsorption is expediently carried out on the plastic surface of microtiter plates having 96 wells, preferably on MaxiSorp plates (Nunc). If ApoB-100-associated particles are present in the supernatant of HepG2 cells, these can bind to the insolubilized rab-anti-LDL-ab, and an immune complex which is bonded to the plastic surface is formed. Non-bonded proteins are removed by washing. The immune complex on the plastic surface is detected with monoclonal antibodies, which had been induced against human LDL according to standard conditions and purified. These antibodies were conjugated with the enzyme peroxidase (Boehringer, Mannheim). Peroxidase converts the colourless substrate TMB (Kirkegaard and Perry) into a coloured product in the presence of H2 O2. After acidification of the reaction mixture with H2 SO4, the specific light adsorption at 450 nm, which is a measure of the amount of ApoB-100-associated particles which had been secreted into the culture supernatant by the HepG2 cells, is determined.
The IC50 value indicates the concentration of substance at which the light adsorption is inhibited by 50% in comparison with the control (solvent control without substance).

IC50 [nM]	Structure (SMILES)
500	O=C(NC(CO)c1cccc(F)c1)C(c1ccc(OCc2ccc3ccccc3n2)cc1)C1CCCC1 (stereo not shown) [Example 15]
250	O=C(NC(CO)c1cccs1)C(c1ccc(OCc2ccc3ccccc3n2)cc1)C1CCCC1 (stereo not shown) [Example 53]
130	O=C([C@H](c1ccc(OCc2ccc3ccccc3n2)cc1)C1CCCCCC1)N(CCO)c1ccccc1 [Example 127]
20	O=C(NCc1ccccc1)[C@H](c1ccc(OCc2ccc3ccccc3n2)cc1)C1CCCCCC1 [Example 141]
